# Measured values taken from US6610744B2, “Methods of treatment with compounds having RARα receptor specific or selective activity” (Allergan, Inc., priority 1995, dated 2003).
# Columns and labels:
# [1] = Guinea pig osmotic pump toxicity experiment; type: in vivo; settings: guinea pigs, intraperitoneal osmotic pump, 14 days; for depression of weight gain relative to control: FIG. 8
# Experimental: In another experiment three-week old male Hartley guinea pigs were implanted intraperitonially with osmotic pumps containing 20% DMSO/80 polyethylene glycol (vehicle) or Compound 42 at concentrations of 4.4, 13.3 or 40 mg/ml in vehicle. Based on the initial body weights and known pumping rate, approximate doses of 0, 2, 6, and 18 mg/kg/day doses of Compound 42 are estimated. Body weights and clinical observations were recorded at least every other day for 14 days post-implantation. The guinea pigs were euthanized after 14 days, and the pumps were examined for possible failure.
# [2] = test system: AML-193 cells (acute monocytic leukemia); assay: AML 193 cell culture assay (3H-thymidine incorporation); type: cell-based, human; settings: FIG. 2
# In short: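 t-RA from 1 mM ethanol stock, diluted in medium; ethanol-matched controls, subdued light. AML-193 cells (GM-CSF/insulin-dependent) at 1,000 cells/well incubated 96 h at 37 °C with retinoids, then 6 h with 1 μCi [3H]-thymidine; TCA-precipitated DNA counted by scintillation, mean dpm of triplicates ±SEM.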
# [3] = test system: retinal pigment epithelium (RPE) cells; assay: Primary RPE culture proliferation; type: cell-based, human; settings: FIG. 5; 10^−10 to 10^−6 M, six days treatment
# Experimental: Primary cultures of human retinal pigment epithelium (RPE) were established from eyes as previously described, (Campochiaro et al., Invest. Opthal & Vis. Sci. 32:65-72 (1991)). 5×10^4 Cells were plated in 16-mm wells of 24-well multiwell plates in Dulbecco's modified Eagle's medium (DMEM Gibco) containing 10% fetal bovine serum (FBS). Cells were treated with ethanol alone (control), ATRA (10^−10 to 10^−6 M) in ethanol, and Compound 42 (10^−10 to 10^−6 M) in ethanol. Cells were fed with fresh media containing the appropriate concentrations of these compounds every two days for a total of six days treatment. Cells were removed from the plates via treatment with trypsin and the number of cells were counted with an electronic cell counter.
# [4] = molecular target: T1, RXRβ (Homo sapiens, UniProt P28702); assay: Ligand binding assay, RXRβ
# T1 construct: made in house; host or cells: Baculovirus expression (insect cell extract)
# T1 sequence (P28702 1-533): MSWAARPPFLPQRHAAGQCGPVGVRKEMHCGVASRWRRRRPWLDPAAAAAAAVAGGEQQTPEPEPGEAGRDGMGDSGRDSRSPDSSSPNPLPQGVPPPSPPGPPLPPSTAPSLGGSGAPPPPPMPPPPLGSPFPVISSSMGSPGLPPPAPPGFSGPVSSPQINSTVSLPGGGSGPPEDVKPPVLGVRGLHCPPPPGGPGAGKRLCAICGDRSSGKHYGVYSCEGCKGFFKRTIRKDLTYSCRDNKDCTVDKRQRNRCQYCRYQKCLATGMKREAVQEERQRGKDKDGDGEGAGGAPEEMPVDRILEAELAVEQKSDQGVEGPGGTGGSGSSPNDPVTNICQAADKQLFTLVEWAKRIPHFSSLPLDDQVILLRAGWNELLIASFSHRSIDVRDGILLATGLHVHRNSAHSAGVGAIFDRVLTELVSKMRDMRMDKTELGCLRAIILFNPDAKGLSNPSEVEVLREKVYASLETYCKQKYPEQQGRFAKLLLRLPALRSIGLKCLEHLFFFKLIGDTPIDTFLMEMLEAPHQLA
# Experimental: All binding assays were performed in a similar fashion. All six receptor types were derived from the expressed receptor type (RARα, β, Γ and RXRα, β, Γ) expressed in Baculovirus. Stock solutions of all compounds were prepared as 10 mM ethanol solutions and serial dilutions carried out into 1:1 DMSO; ethanol. Assay buffers consisted of the following for all six receptor assays: 8% glycerol, 120 mM KCl 8 mM Tris, 5 mM CHAPS 4 mM DTT and 0.24 mM PMSF, pH-7.4@ room temperature.
# All receptor binding assays were performed in the same manner. The final assay volume was 250 μl and contained from 10-40 μg of extract protein depending on receptor being assayed along with 5 nM of [^3H] all-trans retinoic acid or 10 nM [^3H] 9-cis retinoic acid and varying concentrations of competing ligand at concentrations that ranged from 0-10^−5 M. The assays were formatted for a 96 well minitube system. Incubations were carried out at 4° C. until equilibrium was achieved. Non-specific binding was defined as that binding remaining in the presence of 1000 nM of the appropriate unlabeled retinoic acid isomer. At the end of the incubation period, 50 μl of 6.25% hydroxyapitite was added in the appropriate wash buffer. The wash buffer consisted of 100 mM KCl, 10 mM Tris and either 5 mM CHAPS (RXRα, β, Γ) or 0.5% Triton X-100 (RARα, β, Γ). The mixture was vortexed and incubated for 10 minutes at 4° C., centrifuged and the supernatant removed. The hydroxyapitite was washed three more times with the appropriate wash buffer. The receptor-ligand complex was adsorbed by the hydroxyapitite. The amount of receptor-ligand complex was determined by liquid scintillation counting of hydroxyapitite pellet.
# After correcting for non-specific binding, IC50 values were determined. […] The IC50 value was determined graphically from a loglogit plot of the data. The […] were determined by application of the Cheng-Prussof equation to the IC50 values, the labeled ligand concentration and the Kd of the labeled ligand.
# The results of ligand binding assay are expressed in Kd numbers. (See Cheng et al. Biochemical Pharmacology Vol. 22 pp 3099-3108, expressly incorporated herein by reference.)
smiles,measurement,setting,value
CC(C)(C)c1cc(C(=O)Nc2ccc(C(=O)O)c(F)c2)cc(C(C)(C)C)n1 [Compound 42],mucocutaneous toxicity,"[1]; any dose (2, 6, 18 mg/kg/day)",no signs of mucocutaneous toxicity
same,depression of weight gain relative to control,[1]; high dose (18 mg/kg/day),Significant depression of weight gain
same,depression of weight gain relative to control,[1]; lower and middle doses (approx. 2 and 6 mg/kg/day),"no, or only statistically insignificant depression of weight gain"
same,growth of AML 193 malignant cells,[2]; 96 hours,inhibited the growth
same,growth of AML 193 cells at low concentrations,[2]; low concentrations,inhibit the malignant cell growth at low concentrations
same,RPE cell proliferation,[3],dose dependent decrease in RPE cell proliferation
same,Kd,[4],> 1 µM
